This note sets out measurements from ChEMBL document CHEMBL1156829 (Proc Natl Acad Sci U S A, 2008).

A value given as a limit tells only on which side of the number the result lay.

The test system of data set [1] is Plasmodium falciparum. Briefly: NOVARTIS: Inhibition of Plasmodium falciparum 3D7 (drug-susceptible) proliferation in erythrocyte-based infection assay. The data set is classed as functional, organism-based. To be noted: Plasmodium falciparum, 3D7.
For data set [2], the system named is Plasmodium falciparum. In words: NOVARTIS: Inhibition of Plasmodium falciparum W2 (drug-resistant) proliferation in erythrocyte-based infection assay. Type of data set: functional, organism-based. The note with it: Plasmodium falciparum, W2; read-out: EC50.
The nature of data set [3]: NOVARTIS: Cytotoxicity against human hepatocellular carcinoma cell line (Huh7). Type of data set: toxicity, cell-based, Huh-7. The note with it: Huh7 cells (hepatocellular carcinoma cell line).

As usually defined, the EC50 is the concentration that produces a half-maximal response. As usually defined, the CC50 is the concentration at which the toxic effect on the cells reaches its halfway point. For the compound `CSC1=NC(=Nc2c(C)cccc2C)C2(CCC(C(C)(C)C)CC2)N1c1ccc(Cl)cc1` (configuration not stated), the EC50 in the data set on Plasmodium falciparum [1] was 1.48 µM; in the data set on Plasmodium falciparum [2], greater than 10 µM. The CC50 in data set [3] was greater than 67.3 µM.
As for `COc1ccc2nc(C)cc(Nc3ccc(Cl)cc3)c2c1`, the 50% effective concentration (EC50) in the data set on Plasmodium falciparum [1] worked out at 1.23 µM; with Plasmodium falciparum [2] it was 2.69 µM. In data set [3], this compound registered a half-maximal cytotoxic concentration (CC50) of 18.3 µM.
For `COc1cccc(NC(=O)C2C3C=CC4(O3)C2C(=O)N(Cc2ccc3c(c2)OCO3)C4C(=O)NC2CCCCC2C)c1` (configuration not stated), the EC50 in the data set on Plasmodium falciparum [1] was greater than 12.5 µM; with Plasmodium falciparum [2], greater than 5.31 µM. Moreover, in data set [3], the 50% cytotoxic concentration (CC50) was greater than 100 µM.
For the compound `COCCN(CC(=O)NCc1ccc(OC2CCN(CC(c3ccccc3)c3ccccc3)CC2)cc1)S(=O)(=O)c1ccccc1`, the EC50 in the data set with Plasmodium falciparum [1] was found to be 1 µM; in the data set with Plasmodium falciparum [2], 0.526 µM. Also, the CC50 in data set [3] was greater than 10 µM.
Regarding `O=S(=O)(NC1=CC2C(=Nc3ccc(NS(=O)(=O)c4ccc(Br)cc4)cc3N2c2ccccc2)C=C1)c1ccc(Br)cc1` (configuration not stated), the values for the EC50 with Plasmodium falciparum [1] and in the data set with Plasmodium falciparum [2] were 0.929 µM and greater than 1.47 µM, respectively. Further, the CC50 in data set [3] was greater than 10 µM.
For the compound `CC1(C)N=C(N)N=C(N)N1c1ccc(Br)cc1`, the EC50 turned out to be 0.000592 µM in the data set with Plasmodium falciparum [1] and 0.533 µM in the data set with Plasmodium falciparum [2]. In data set [3], this compound returned a CC50 greater than 10 µM.
For `COc1cc(OC)c(OC)cc1CN1CCN(C(C)C)CC1`, the figures for the concentration for a half-maximal effect (EC50) with Plasmodium falciparum [1] and in the data set with Plasmodium falciparum [2] were greater than 1.01 µM and greater than 1.48 µM, respectively. In addition, the cytotoxic concentration (CC50) in data set [3] was greater than 10 µM.
On to `COc1cccc(-n2sc3c(c2=S)-c2cc(OC)ccc2NC3(C)C)c1`, for which the concentration for a half-maximal effect (EC50) is greater than 0.991 µM in the data set with Plasmodium falciparum [1] and 1.48 µM with Plasmodium falciparum [2]. The same compound returned a half-maximal cytotoxic concentration (CC50) in data set [3] greater than 10 µM.
On the same counts, the results for `Cc1ccc(NC(=O)CCCCC(=O)Nc2ccc(C)c(Br)c2)cc1Br` are greater than 1.16 µM, greater than 1.45 µM and greater than 10 µM.
Regarding `COc1cc(/C=C(\C#N)c2nc3ccccc3[nH]2)ccc1OCc1ccc(C)cc1`, the EC50 turned out to be 1.05 µM with Plasmodium falciparum [1] and 1.47 µM with Plasmodium falciparum [2]. Besides, in data set [3], the cytotoxic concentration (CC50) is greater than 10 µM.
The matching figures for `O=C(Nc1ccc(-c2nc3cc(NC(=O)c4ccc(Cl)cc4)ccc3[nH]2)cc1)c1ccc(Cl)cc1`: 0.993 µM, greater than 12.5 µM and 83.8 µM.
On the same counts, the results for `CCCCCC[n+]1ccccc1C=Cc1ccc(N(C)C)cc1` are 0.118 µM, 0.238 µM and 1.6 µM.
On to `Oc1ccccc1Nc1nc(NC2CCCC2)c2ccccc2n1`, for which the results for the EC50 in the data set on Plasmodium falciparum [1] and in the data set with Plasmodium falciparum [2] were 0.53 µM and 0.877 µM, respectively. In data set [3], this compound came in with a cytotoxic concentration (CC50) of 16.7 µM.
Turning to `CC(C)CNC(=O)c1cnc(NCCCN2CCCCC2C)nc1NCC(C)C` (configuration not stated), the EC50 was 0.344 µM in the data set on Plasmodium falciparum [1] and 1.46 µM with Plasmodium falciparum [2]. This compound displayed a half-maximal cytotoxic concentration (CC50) in data set [3] greater than 10 µM.
The matching figures for `CCc1ccc2[nH]c(=O)c(CN(CCN(C)C)C(=S)NCCCN(C)C)cc2c1`: 1.76 µM, greater than 1.46 µM and greater than 10 µM.
`COc1cccc(C=NNC(=O)c2ccccc2O)c1O`: the EC50 in the data set with Plasmodium falciparum [1] is 5.38 µM; in the data set with Plasmodium falciparum [2], 0.969 µM. The compound also gave a CC50 in data set [3] of 6.64 µM.
On the same counts, the results for `CC(C)(C)c1ncccc1OC(=O)C12CC3CC(CC(C3)C1)C2` are 0.349 µM, greater than 1.47 µM and greater than 10 µM.
On the same counts, the results for `Clc1ccc(-c2nc3cc(Cl)cnc3[nH]2)cc1` are 0.565 µM, greater than 1.25 µM and greater than 8.52 µM.
As for `CCc1ccc(C(C)=NNc2nc(O)cc(-c3ccccc3)n2)cc1`, the EC50 in the data set on Plasmodium falciparum [1] is 1.78 µM; in the data set on Plasmodium falciparum [2], greater than 1.46 µM. For the same compound, in data set [3], the half-maximal cytotoxic concentration (CC50) was greater than 10 µM.
On to `CN(C)c1ccc(N=C2NC(=O)/C(=C/c3ccc(Cl)cc3)S2)cc1`, for which the EC50 turned out to be 0.819 µM in the data set with Plasmodium falciparum [1] and 1.46 µM with Plasmodium falciparum [2]. In data set [3], this compound registered a CC50 greater than 10 µM.
The matching figures for `Cc1ccc(C)c(CN2C(=O)c3ccccc3S(=O)(=O)c3ccc(C(=O)NCCCN4CCCC(C)C4)cc32)c1` (configuration not stated): 1.07 µM, 1.75 µM and 12 µM.
The matching figures for `Cc1ccc(Cl)cc1N1C(=O)[C@@H]2[C@H](C1=O)C1c3ccccc3C=CN1[C@@H]2C(=O)c1cccs1` (some centres not stated): 1.06 µM, 0.529 µM and greater than 10 µM.
As for `COC(=O)c1c(-c2c(F)cccc2Cl)noc1C=CNc1ccc(OC)cc1`, the EC50 in the data set on Plasmodium falciparum [1] was 10.2 µM; in the data set with Plasmodium falciparum [2], 5.29 µM. In data set [3], this compound registered a half-maximal cytotoxic concentration (CC50) greater than 100 µM.
On the same counts, the results for `COc1cc(NC(C)CCCN(Cc2ccccc2OC)C(=O)C(C)C)c2ncccc2c1` (configuration not stated) are 0.684 µM, 0.406 µM and greater than 7.7 µM.
On to `Cc1cc(I)ccc1N1C(=O)C2C3c4ccccc4C(CO)(c4ccccc43)C2C1=O` (configuration not stated), for which the EC50 in the data set with Plasmodium falciparum [1] was greater than 11.2 µM; in the data set with Plasmodium falciparum [2], greater than 10.1 µM. For the same compound, the CC50 in data set [3] is greater than 67.9 µM.
Regarding `Cc1c(C(=O)Nc2ccccc2)sc2ncn(Cc3ccccc3F)c(=O)c12`, the values for the EC50 in the data set with Plasmodium falciparum [1] and with Plasmodium falciparum [2] were greater than 0.875 µM and greater than 1.48 µM, respectively. The same compound yielded a CC50 in data set [3] greater than 10 µM.
`O=C(COC(c1ccccc1)c1c(Cl)cncc1Cl)N1CCNCC1` (configuration not stated): the EC50 in the data set with Plasmodium falciparum [1] was 0.592 µM; in the data set on Plasmodium falciparum [2], 2.57 µM. The compound further came in with a half-maximal cytotoxic concentration (CC50) in data set [3] of 48.2 µM.
As to `N=c1c2c(n(Cc3ccc(Cl)cc3)c3c1CCC3)CCCC2`, the half-maximal effective concentration (EC50) turned out to be 0.222 µM in the data set with Plasmodium falciparum [1] and 0.533 µM in the data set with Plasmodium falciparum [2]. In addition, in data set [3], the CC50 was greater than 10 µM.
Turning to `CCN(CC)CCCNC(=S)N(Cc1ccc(F)cc1)Cc1cc2cc(C)cc(C)c2[nH]c1=O`, the EC50 in the data set with Plasmodium falciparum [1] was determined as 2.76 µM; with Plasmodium falciparum [2], 1.2 µM. In data set [3], this compound returned a CC50 of 22.5 µM.
As for `c1ccc(C[C@H]2CN(c3ccc4ccccc4c3)CCN2CCNCC2CCCO2)cc1` (some centres not stated), the concentration giving a half-maximal response (EC50) with Plasmodium falciparum [1] worked out at 0.273 µM; with Plasmodium falciparum [2], 0.38 µM. The compound further gave a 50% cytotoxic concentration (CC50) in data set [3] of 2.54 µM.
Regarding `CCCN(CC(=O)Nc1cc(C(C)(C)C)nn1-c1cccc(C)c1C)C(=O)C1CCCCC1`, the figures for the EC50 in the data set on Plasmodium falciparum [1] and in the data set with Plasmodium falciparum [2] were 1.18 µM and greater than 1.39 µM, respectively. In data set [3], this compound came in with a 50% cytotoxic concentration (CC50) of 9.45 µM.
On the same counts, the results for `Cc1oc2c(c1C(=O)NC1CCS(=O)(=O)C1)C(=O)c1ccccc1C2=O` (configuration not stated) are 0.437 µM, 0.127 µM and 2.4 µM.
For `Nc1cc2c(cc1Br)CCCC2`, the EC50 was greater than 1.03 µM in the data set on Plasmodium falciparum [1] and greater than 1.47 µM with Plasmodium falciparum [2]. This compound returned a CC50 in data set [3] greater than 10 µM.
Turning to `C=CCNC(=O)c1ccc2c(c1)N=C(c1ccc(F)cc1)N(CCCC)C2`, the concentration for a half-maximal effect (EC50) with Plasmodium falciparum [1] worked out at 0.191 µM; in the data set with Plasmodium falciparum [2], 2.45 µM. Also, in data set [3], half-maximal cytotoxicity (CC50) was put at 16.9 µM.
For the compound `CCOC(=O)CCS(=O)(=O)c1ccc(Br)cc1`, the values for the EC50 in the data set with Plasmodium falciparum [1] and with Plasmodium falciparum [2] were 0.237 µM and greater than 1.46 µM, respectively. The CC50 in data set [3] was greater than 10 µM.
For the compound `C=CCN1C(=O)/C(=C\c2cc(Cl)c(O)c(OC)c2)C(=O)NC1=S`, the half-maximal effective concentration (EC50) is 2.11 µM in the data set with Plasmodium falciparum [1] and greater than 1.48 µM in the data set with Plasmodium falciparum [2]. The same compound gave a CC50 in data set [3] greater than 10 µM.
For `Cc1ccc(N2C3c4ccccc4N(S(=O)(=O)c4ccc(C)cc4)C2c2ccccc2N3S(=O)(=O)c2ccc(C)cc2)cc1`, the values for the concentration for a half-maximal effect (EC50) with Plasmodium falciparum [1] and with Plasmodium falciparum [2] were 0.72 µM and 1.49 µM, respectively. Moreover, the CC50 in data set [3] is greater than 10 µM.
Regarding `c1ccc(N=c2sc(-c3ccccc3)cn2CCCCCCn2cc(-c3ccccc3)sc2=Nc2ccccc2)cc1`, the results for the EC50 in the data set with Plasmodium falciparum [1] and with Plasmodium falciparum [2] were 0.739 µM and 0.525 µM, respectively. Also, in data set [3], the CC50 is greater than 10 µM.
Consider `O=C(NCc1ccccc1)c1cccc2c(Br)cccc12`, for which the EC50 in the data set on Plasmodium falciparum [1] is greater than 1.1 µM; in the data set with Plasmodium falciparum [2], 1.47 µM. The 50% cytotoxic concentration (CC50) in data set [3] is greater than 10 µM.
